Measurements taken from US20240417486A1, “ASYMMETRIC BIS-BENZIMIDAZOLE STING AGONIST IMMUNOCONJUGATES AND USES THEREOF” (BOLT BIOTHERAPEUTICS, INC., priority 2021, published 2024).

Target: human STING WT (6His-tagged STING protein) (Homo sapiens (Human), UniProt Q86WV6)
Experiment: HTRF binding assay (STING binding assay)
Conditions: inhibition of d2-labeled 2',3'-cGAMP binding to 6His-tagged STING
Procedure: Example 202 HTRF Binding Assay
Asymmetric bis-benzimidazole compounds (BBI) of the invention were assessed in a biochemical homogeneous time resolved fluorescence (HTRF) binding assay adapted from the human STING WT binding assay (“HTRF, A guide to Homogeneous Time Resolved Fluorescence”, (2021) PerkinElmer Cisbio; Mathis, G. Clinical Chemistry, 41(9):1391-1397). Briefly, 6His-tagged STING protein was incubated with terbium cryptate-labeled anti-6His antibody, d2-labeled 2′,3′-cGAMP, and varying concentrations of test articles in a 384-well plate format. Donor and acceptor emission signals were measured for each well by plate reader at […], respectively, and the ratio of the signals used to calculate percent inhibition of d2-labeled 2′,3′-cGAMP, cyclic dinucleotide binding.

Sequence of human STING WT (6His-tagged STING protein) (Q86WV6 whole entry): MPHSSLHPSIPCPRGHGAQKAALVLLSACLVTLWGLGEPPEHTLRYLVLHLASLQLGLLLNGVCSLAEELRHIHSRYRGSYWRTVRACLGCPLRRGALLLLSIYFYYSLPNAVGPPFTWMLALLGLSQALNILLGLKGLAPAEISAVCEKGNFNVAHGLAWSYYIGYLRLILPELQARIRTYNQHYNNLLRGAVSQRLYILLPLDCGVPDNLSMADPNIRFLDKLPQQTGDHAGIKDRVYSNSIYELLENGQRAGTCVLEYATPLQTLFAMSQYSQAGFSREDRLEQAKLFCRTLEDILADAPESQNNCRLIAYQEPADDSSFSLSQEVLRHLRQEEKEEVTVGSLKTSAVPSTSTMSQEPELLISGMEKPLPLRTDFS

| Compound | IC50 |
| --- | --- |
| CCn1nc(C)cc1C(=O)Nc1nc2cc(C(N)=O)cc(OCCCn3c(NC(=O)c4cc(C)nn4CC)nc4cc(C(N)=O)cc(OC)c43)c2n1C [BBI-1, 1-(3-((5-carbamoyl-2-(1-ethyl-3-methyl-1H-pyrazole-5-carboxamido)-1-methyl-1H-benzo[d]imidazol-7-yl)oxy)propyl)-2-(1-ethyl-3-methyl-1H-pyrazole-5-carboxamido)-7-methoxy-1H-benzo[d]imidazole-5-carboxamide] | 57 nM |
| CCn1nc(C)cc1C(=O)Nc1nc2cc(C(N)=O)cc(OCCCCn3c(NC(=O)c4cc(C)nn4CC)nc4cc(C(N)=O)cc(OC)c43)c2n1C [BBI-2, 1-[4-[6-carbamoyl-2-[(2-ethyl-5-methyl-pyrazole-3-carbonyl)amino]-3-methyl-benzimidazol-4-yl]oxybutyl]-2-[(2-ethyl-5-methyl-pyrazole-3-carbonyl)amino]-7-methoxy-benzimidazole-5-carboxamide] | 73 nM |
| CCn1nc(C)cc1C(=O)Nc1nc2cc(C(N)=O)cc(OCCCCn3c(NC(=O)c4cc(C)nn4CC)nc4cc(C(N)=O)cc(OCCCN5CCNCC5)c43)c2n1C [BBI-3, 1-(4-((5-carbamoyl-2-(1-ethyl-3-methyl-1H-pyrazole-5-carboxamido)-1-methyl-1H-benzo[d]imidazol-7-yl)oxy)butyl)-2-(1-ethyl-3-methyl-1H-pyrazole-5-carboxamido)-7-(3-(piperazin-1-yl)propoxy)-1H-benzo[d]imidazole-5-carboxamide] | 250 nM |

The next lines start with the values.

| IC50 | Compound |
| --- | --- |
| 440 nM | CCn1nc(C)cc1C(=O)Nc1nc2cc(C(N)=O)cc(OCCCn3c(NC(=O)c4cc(C)nn4CC)nc4cc(C(N)=O)ccc43)c2n1C [BBI-4] |
| 210 nM | CCn1nc(C)cc1C(=O)Nc1nc2cc(C(N)=O)cc(OCCn3c(NC(=O)c4cc(C)nn4CC)nc4cc(C(N)=O)cc(OC)c43)c2n1C [BBI-5] |
| 51 nM | CCn1nc(C)cc1C(=O)Nc1nc2cc(C(N)=O)cc(OCCCn3c(NC(=O)c4cc(C)nn4CC)nc4cc(C(N)=O)cc(OCCCN5CCNCC5)c43)c2n1C [BBI-6] |
| 150 nM | CCn1nc(C)cc1C(=O)Nc1nc2cc(C(N)=O)cc(OC/C=C/Cn3c(NC(=O)c4cc(C)nn4CC)nc4cc(C(N)=O)cc(OCCCN5CCNCC5)c43)c2n1C [BBI-7] |
